# Literature values, collected in article PMC9074375 (The journal of physical chemistry. B, 2022).
# Tested on: malignant cells
sequence,measurement,setting,value
FLGVLALLGYLAVRPFLPKKKQQK [NAF-1^44-67],permeation of the plasma membrane,malignant versus normal cells,selectively permeates the plasma membrane of malignant but not normal cells
same,killing of cancer cells,"peptide alone, without therapeutic cargo","kill cancer cells by itself, without carrying additional therapeutic cargo and without damaging normal cells"
